According to patent publication US7053178B2, “Synthetic peptides and kits for diagnosis of anti-phospholipid syndrome” (Yeda Research Development Co., LTD, priority 1998, dated 2006):
Where no end group is shown, it is not given here.

Experiments:
anti-β2GPI G-3 mAb [1] = test: U937 monocyte adhesion to HUVEC exposed to G-3 mAb; assay type: cell-based, human; details: G-3 mAb preincubated with peptide, 15 μM peptide
Procedure: (§1) FIGS. 3A–3C are graphs showing inhibition of U937 monocyte cell adhesion to HUVEC upon exposure to anti-β2GPI ILA-1, ILA-3 and G-3 mAbs and increasing concentrations of the inhibitory monomer peptides A, B and C, respectively, and of unrelated peptide D as control. The percentage of inhibition of adhesion was calculated as follows: % inhibition of adhesion=CPM in the presence of anti-β2GPI mAb−CPM in the presence of anti-β2GPI mAb and the tested peptide/CPM in the presence of anti-β2GPI mAb×100 (CPM=counts/min). Each point represents mean±SD of three different experiments.
(§2) (g) Adherence of U937 monocyte cells to endothelial cells in the presence of anti-β2GPI mAbs and the inhibitory peptides. This assay was performed as previously described (Carvalho et al., 1996). Briefly, U937 cells (a monocyte/macrophage-like cell line) were pretreated with heat-aggregated gamma-globulin for 30 min at 37° C. […] Radioactivity associated with adherence was quantified by beta-scintillation spectroscopy. The results were expressed as percent of added U937 cells that adhered and are presented as the mean±SD from 3–5 replicate wells.
(§3) The adhesion of monocytes to endothelial cells (EC) is considered a marker of EC activation. The percentage of adhesion is expressed as the portion of added U937 monocyte cells adhering to the HUVEC (thus reflecting the percentage of HUVEC coverage by the monocytes). […]

anti-β2GPI G-3 mAb [2] = test: Cyto-ELISA: inhibition of G-3 mAb binding to HUVEC; set-up: species or system human; details: peptide concentration of 10 μM
Procedure: (§4) FIGS. 2A–2C are graphs showing inhibition of the anti-β2GPI ILA-1, ILA-3 and G-3 mAbs binding to human umbilical vein endothelial cells (HUVEC) by competition assays using increasing concentrations of the inhibitory monomer peptides A, B and C, respectively, and of unrelated peptide D as control. The percent of inhibition was calculated as in FIG. 1 above. Each point represents mean±SD of three different experiments.
(§5) (f) Anti-β2GPI mAb binding to endothelial cells in the presence of the inhibitory peptides. Human umbilical vein endothelial cells (HUVEC) were isolated as previously described and cultured under standard conditions (Jaffe et al., 1973). Briefly, umbilical cords were treated with collagenase (0.2% from Clostridium histolyticum, Boehringer) for 20 min at 37° C., cells were cultured in medium 199 with 20% FCS, 10 μg/ml growth supplement, 100 μg/ml heparin and antibiotics (streptomycin, penicillin), and used at passages 1–2 for plating onto gelatin-coated 96-well plates. Cyto-ELISA was performed as detailed before (Jaffe et al., 1973). Briefly, mAbs at different concentrations were added to HUVEC confluent wells, previously coated with 10 μg/ml β2GPI for 2 hours and fixed with 0.1% glutaraldehyde. The bound mAb was detected by further 1-hour incubation with alkaline phosphatase-conjugated goat anti-human IgM. […]

anti-β2GPI ILA-3 mAb = test: Cyto-ELISA: inhibition of ILA-3 mAb binding to HUVEC; set-up: species or system human; details: peptide concentration of 10 μM
Procedure: as §4, §5

anti-β2GPI ILA-1 mAb = test: U937 monocyte adhesion to HUVEC exposed to ILA-1 mAb; assay type: cell-based, human; details: ILA-1 mAb preincubated with peptide, 10 μM peptide
Procedure: as §1, §2, §3

Question: What does the source list for CATLRVYKGG [Peptide C]?
Answer: inhibition of adhesion of U937 to HUVEC (anti-β2GPI G-3 mAb [1]): 92%; inhibition of G-3 mAb binding to HUVEC (anti-β2GPI G-3 mAb [2]): 92%

Question: How did the “inhibition of ILA-3 mAb binding to HUVEC” value (anti-β2GPI ILA-3 mAb) turn out when KDKATFGTHDG [Peptide B] was run?
Answer: 72%

Question: Which “inhibition of adhesion of U937 to HUVEC” value (anti-β2GPI ILA-1 mAb) does the source give for NTLKTPRVGG [Peptide A] here?
Answer: 84%
